What was measured:
[1] = tested on: E. coli transformed with IPTG-inducible antisense clones; experiment: Cell-based assay using antisense to genes encoding ribosomal proteins (Example 9)
Text: First, pLex5BA (Krause et al., J. Mol. Biol. 274: 365 (1997), the disclosure of which is incorporated herein by reference in its entirety) vectors containing antisense constructs to either rplW or to elaD were introduced into separate E. coli cell populations. Vector introduction is a technique well known to those of ordinary skill in the art. The vectors of this example contain IPTG inducible promoters that drive the transcription of the antisense RNA in the presence of the inducer. However, those skilled in the art will appreciate that other inducible promoters may also be used. Suitable vectors are also well known in the art. Antisense clones to genes encoding different ribosomal proteins or to genes encoding proteins that are not involved in protein synthesis were utilized to test the effect of antisense transcription on cell sensitivity to the antibiotics known to bind to ribosomal proteins and inhibit protein synthesis. Antisense nucleic acids comprising a nucleotide sequence complementarty to the elaD, atpB&atpE, visC and yohH genes are referred to as AS-elaD, AS-atpB/E, AS-visC, AS-yohH respectively. These genes are not known to be involved in protein synthesis. […]
The cell populations containing vectors producing AS-elaD or AS-rplW were exposed to a range of IPTG concentrations in liquid medium to obtain the growth inhibitory dose curve for each clone (FIG. 1). First, seed cultures were grown to a particular turbidity measured by the optical density (OD) of the growth solution. […] The cells were grown for up to 15 hours and the extent of growth was determined by measuring the optical density of the cultures at 600 nm. […]
An example of a tetracycline dose response curve is shown in FIGS. 2A and 2B for the rplW and elaD genes, respectively. Cells were grown to log phase and then diluted into medium alone or medium containing IPTG at concentrations which give 20% and 50% growth inhibition as determined by IPTG dose response curves. […] The 96 well plates were incubated at 37° C. and the OD600 was read by a plate reader every 5 minutes for up to 15 hours. […]

[2] = tested on: Staphylococcus aureus RN4220; experiment: Inhibition of proliferation after xylose induction of antisense expression (Example 1); format: cell-based; conditions: 2% xylose
Text: In the case of Staphylococcus aureus, a novel inducible promoter system, XylT5, comprising a modified T5 promoter fused to the xylO operater from the xyla promoter of Staphylococcus aureus was used. The promoter is described in U.S. Provisional Patent Application Ser. No. 60/259,434, the disclosure of which is incorporated herein by reference in its entirety. Transcription from this hybrid promoter is inducible by xylose.
In the case of Staphylococcus aureus, a shotgun library of Staphylococcus aureus genomic fragments was cloned into the vector pXyIT5-P15a, which harbors the Xy1T5 inducible promoter. […]
The purified library was then transformed into electrocompetent Staphylococcus aureus RN4220. […] Gridded plates were incubated 16 hours at 37° C., and then manually scored for arrayed colonies that were growth-compromised in the presence of xylose.
Arrayed colonies that were growth-sensitive on medium containing 2% xylose, yet were able to grow on similar medium lacking xylose, were subjected to further growth sensitivity analysis as follows: Colonies from the plate lacking xylose were manually picked and inoculated into individual wells of a 96 well culture dish containing LBG+CM15, and were incubated for 16 hours at 37° C. […] Clones that grew similarly at all dilutions on both media were scored as a negative and were no longer considered.

Molecule: CC[C@H]1OC(=O)[C@H](C)[C@@H](O[C@H]2C[C@@](C)(OC)[C@@H](O)[C@H](C)O2)[C@H](C)[C@@H](O[C@@H]2O[C@H](C)C[C@H](N(C)C)[C@H]2O)[C@](C)(O)C[C@@H](C)C(=O)[C@H](C)[C@@H](O)[C@]1(C)O [Erythromycin]
- sensitivity of cells transcribing antisense to genes not involved in protein synthesis ([1]; AS-atpB/E, AS-visC, AS-elaD, AS-yohH): do not
- sensitivity of cells transcribing antisense to protein synthesis genes ([1]; AS-rplL, AS-rplW, clones to L7/L12, L10, L22, L18, rRNA, Elongation Factor G, with vs without IPTG): increased sensitivity

Molecule: CCn1cc(C(=O)O)c(=O)c2ccc(C)nc21 [Nalidixic acid]
- sensitivity of the clone transcribing antisense to rplL and rplJ (AS-rplL/J) ([1]; antibiotics which do not inhibit protein synthesis): does not show increased sensitivity

B1: S1M10000001A05: clone containing the nucleic acid which inhibits Staphylococcus aureus proliferation (nucleic acid, listed as Staphylococcus aureus)
DNA: GATCATATAGAATGACATCCGCTTCACGTATTAAACGCTCAGCCTTTTTCGTCAAATAATTCGGATTACCTGGACCCGCACCTATCAAGTAAACCTTGCCATATTCCTCTACAGACATATATATACGTTCCCGTCTGTAACTTCTACCTCATAAACATCTACACAACCTTCATCAGGTTCTTGAACAATACCTGTATTTAAATCAATTTTTT
- growth sensitivity upon induction of antisense transcription [2]: inhibits Staphylococcus aureus proliferation

Source: US20020061569A1, “Identification of essential genes in prokaryotes” (priority 2000, published 2002)
